This is an account of results in paper PMC8462848, “Quinazolin-4(3H)-one based potential multiple tyrosine kinase inhibitors with excellent cytotoxicity” (Journal of Enzyme Inhibition and Medicinal Chemistry, 2021).

As usually defined, the IC50 is the midpoint of a concentration-inhibition curve. Broadly, the inhibition is the drop in the measured response relative to a control, in per cent. What is called melting point is the temperature of the solid-liquid transition.

Each structure is given as a SMILES string.

T4 sequence (P00533 25-1210): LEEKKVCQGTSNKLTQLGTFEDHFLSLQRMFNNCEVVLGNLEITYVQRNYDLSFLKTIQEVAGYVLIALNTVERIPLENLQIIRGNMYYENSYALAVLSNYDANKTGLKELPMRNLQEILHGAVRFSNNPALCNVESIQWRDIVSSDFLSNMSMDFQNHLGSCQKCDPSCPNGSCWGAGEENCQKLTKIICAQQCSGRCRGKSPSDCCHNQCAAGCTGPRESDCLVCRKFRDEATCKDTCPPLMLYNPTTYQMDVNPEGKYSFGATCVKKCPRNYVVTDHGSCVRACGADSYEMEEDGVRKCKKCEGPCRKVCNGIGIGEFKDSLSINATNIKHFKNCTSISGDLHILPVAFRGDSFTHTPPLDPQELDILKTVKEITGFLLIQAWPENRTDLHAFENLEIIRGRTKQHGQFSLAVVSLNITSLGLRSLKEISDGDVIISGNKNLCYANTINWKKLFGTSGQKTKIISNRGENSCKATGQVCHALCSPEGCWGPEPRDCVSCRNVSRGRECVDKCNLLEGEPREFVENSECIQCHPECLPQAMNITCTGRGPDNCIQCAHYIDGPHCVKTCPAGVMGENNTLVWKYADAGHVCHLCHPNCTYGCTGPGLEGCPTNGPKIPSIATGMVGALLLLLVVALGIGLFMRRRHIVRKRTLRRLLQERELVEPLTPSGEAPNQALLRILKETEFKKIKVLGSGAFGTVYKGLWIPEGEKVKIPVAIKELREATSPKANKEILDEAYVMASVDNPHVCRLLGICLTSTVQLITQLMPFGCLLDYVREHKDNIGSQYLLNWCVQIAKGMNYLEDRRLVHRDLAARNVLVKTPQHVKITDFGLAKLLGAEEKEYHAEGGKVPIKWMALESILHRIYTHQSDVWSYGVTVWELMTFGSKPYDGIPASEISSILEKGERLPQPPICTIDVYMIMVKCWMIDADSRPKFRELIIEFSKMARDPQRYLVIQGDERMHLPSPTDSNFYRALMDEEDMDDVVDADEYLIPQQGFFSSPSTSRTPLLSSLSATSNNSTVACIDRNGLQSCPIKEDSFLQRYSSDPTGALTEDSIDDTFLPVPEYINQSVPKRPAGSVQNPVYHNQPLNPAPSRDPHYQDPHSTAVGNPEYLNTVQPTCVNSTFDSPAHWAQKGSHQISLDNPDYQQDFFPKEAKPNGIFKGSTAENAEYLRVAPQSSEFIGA
T2 sequence (P35968 20-1356): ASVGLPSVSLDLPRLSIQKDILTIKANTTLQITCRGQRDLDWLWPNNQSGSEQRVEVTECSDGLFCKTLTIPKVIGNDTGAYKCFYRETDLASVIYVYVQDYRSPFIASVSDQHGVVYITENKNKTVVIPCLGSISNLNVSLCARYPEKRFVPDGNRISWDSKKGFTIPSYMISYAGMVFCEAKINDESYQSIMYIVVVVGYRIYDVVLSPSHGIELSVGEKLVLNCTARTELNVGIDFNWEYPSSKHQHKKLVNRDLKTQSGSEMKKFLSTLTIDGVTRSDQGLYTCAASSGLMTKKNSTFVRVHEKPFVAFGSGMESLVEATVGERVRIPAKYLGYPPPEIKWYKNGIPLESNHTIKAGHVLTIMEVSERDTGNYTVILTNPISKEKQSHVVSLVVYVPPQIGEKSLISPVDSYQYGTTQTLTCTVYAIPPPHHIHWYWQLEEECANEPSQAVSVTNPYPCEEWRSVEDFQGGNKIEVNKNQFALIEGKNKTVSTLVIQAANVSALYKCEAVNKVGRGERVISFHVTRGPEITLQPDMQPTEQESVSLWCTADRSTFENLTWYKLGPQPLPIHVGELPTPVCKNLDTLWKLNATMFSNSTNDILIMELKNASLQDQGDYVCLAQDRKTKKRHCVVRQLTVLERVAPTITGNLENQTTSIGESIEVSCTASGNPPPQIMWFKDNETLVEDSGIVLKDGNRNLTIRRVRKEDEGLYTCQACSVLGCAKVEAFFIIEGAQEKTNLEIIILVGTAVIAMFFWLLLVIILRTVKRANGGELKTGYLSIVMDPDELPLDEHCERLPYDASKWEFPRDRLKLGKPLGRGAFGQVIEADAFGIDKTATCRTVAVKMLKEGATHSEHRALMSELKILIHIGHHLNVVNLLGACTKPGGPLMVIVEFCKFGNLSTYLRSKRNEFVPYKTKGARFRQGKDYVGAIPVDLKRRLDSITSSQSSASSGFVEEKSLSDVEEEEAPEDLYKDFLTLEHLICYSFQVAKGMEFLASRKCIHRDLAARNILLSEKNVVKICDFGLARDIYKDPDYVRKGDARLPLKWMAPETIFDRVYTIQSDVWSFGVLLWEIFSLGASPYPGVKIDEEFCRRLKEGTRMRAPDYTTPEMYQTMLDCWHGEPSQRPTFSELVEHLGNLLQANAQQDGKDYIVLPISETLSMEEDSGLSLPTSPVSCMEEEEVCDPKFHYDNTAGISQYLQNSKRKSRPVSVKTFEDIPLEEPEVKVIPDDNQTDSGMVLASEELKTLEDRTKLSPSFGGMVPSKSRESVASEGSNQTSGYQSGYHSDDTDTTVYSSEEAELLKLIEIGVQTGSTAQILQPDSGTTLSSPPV

In one series the test system is MCF7 (human breast adenocarcinoma) cells. Nature of the series: MTT cytotoxicity assay, MCF7. The class given is cell-based. To be noted: Homo sapiens, MCF7, mean ± SD of triplicate. As to the method: (§1) The cytotoxicity of the synthesised quinazolin-4(3H)-ones was evaluated by MTT assay, as previously described. Two cancer cell lines, MCF7 (human breast adenocarcinoma) and A2780 (human ovary adenocarcinoma), were used in this study, which were obtained from the ATCC (Rockville, MD, USA). […] Additionally, compounds were prepared at the same medium to obtain serial dilutions (50, 25, […] and 0.1 µM). […] The media were aspirated, and the formazan crystals were solubilised by adding 150 µL DMSO. Absorbance was read on a multi-plate reader (BioRad) at […]. […] The data were obtained from triplicates and analysed using statistical software.
A general note: Formazan colour is commonly taken as a measure of viable cells.
Turning to `NNC(=O)CSc1nc2ccc(Cl)cc2c(=O)n1Cc1ccccc1` [3f, 2-((3-Benzyl-6-chloro-4-oxo-3,4-dihydroquinazolin-2-yl)thio)acetohydrazide], the IC50 was 340 ± 110 nM.

The target in a further series is T1, CDK2/CyclinA2 (Homo sapiens, UniProt P24941).
T1 construct: purchased #79599
Kind of series: CDK2 Assay Kit, Kinase-Glo MAX luminescence. The class given is biochemical. The settings on record: mean ± SD of triplicate. A general note: Kinase-Glo reads ATP consumption through a luciferase reaction.
Take `NNC(=O)CSc1nc2ccc(Cl)cc2c(=O)n1Cc1ccccc1` [3f, 2-((3-Benzyl-6-chloro-4-oxo-3,4-dihydroquinazolin-2-yl)thio)acetohydrazide]: inhibition was half-maximal at 420 ± 13 nM (IC50).

The next series has as its target T2, VEGFR2 (Homo sapiens, UniProt P35968).
T2 construct: purchased #40325
Nature of the series: VEGFR2 kinase assay kit, Kinase-Glo MAX luminescence. In kind it is biochemical. The settings on record: 0.01 µM; one experimental data; read-out: % Inhibition VEGFR-2. How it is done: (§2) The HER2/EGFR/VEGFR2 assay kit is designed to measure HER2/EGFR/VEGFR-2 inhibitory activity for screening and profiling applications, using Kinase-Glo® MAX as a detection reagent. The HER2/EGFR/VEGFR2 assay kit comes in a convenient 96-well format, with enough purified recombinant HER2/EGFR/VEGFR2 enzyme, HER2/EGFR/VEGFR2 substrate, ATP and kinase buffer 1 for 100 enzyme reactions. […] […] The quinazolin-4(3H)-ones were diluted in 10% DMSO and 5 μl of the dilution was added to a 50 μl reaction so that the final concentration of DMSO was 1% in all of the reactions. All of the enzymatic reactions were conducted at 30 °C for 40 min. The 50 μl reaction mixture contained 40 mM Tris, pH 7.4, 10 mM MgCl2, 0.1 mg/mL BSA, 1 mM DTT, 10 mM ATP, kinase substrate and the enzyme HER2 / EGFR / VEGFR2. After the enzymatic reaction, 50 μl of Kinase-Glo® MAX luminescence kinase assay solution was added to each reaction and the plates were incubated for 5 min at room temperature. Luminescence signal was measured using a Bio Tek Synergy 2 microplate reader (For detail enzyme assay protocol and the results, please see supplementary data).
For the compound `NNC(=O)CSc1nc2ccc(Cl)cc2c(=O)n1Cc1ccccc1` [3f, 2-((3-Benzyl-6-chloro-4-oxo-3,4-dihydroquinazolin-2-yl)thio)acetohydrazide], the inhibition at 0.01 µM stood at 3.71%.

Staying with this series, now noted: 0.1 µM; one experimental data; read-out: % Inhibition VEGFR-2.
For `NNC(=O)CSc1nc2ccc(Cl)cc2c(=O)n1Cc1ccccc1` [3f, 2-((3-Benzyl-6-chloro-4-oxo-3,4-dihydroquinazolin-2-yl)thio)acetohydrazide], the inhibition at 0.1 µM turned out to be 29.8%.

The series is the same for the next values; noted with them: 1 µM; one experimental data; read-out: % Inhibition VEGFR-2.
As to `NNC(=O)CSc1nc2ccc(Cl)cc2c(=O)n1Cc1ccccc1` [3f, 2-((3-Benzyl-6-chloro-4-oxo-3,4-dihydroquinazolin-2-yl)thio)acetohydrazide], the inhibition at 1 µM was found to be 23.4%.

The series is the same for the next values; noted with them: 10 µM; one experimental data; read-out: % Inhibition VEGFR-2.
`NNC(=O)CSc1nc2ccc(Cl)cc2c(=O)n1Cc1ccccc1` [3f, 2-((3-Benzyl-6-chloro-4-oxo-3,4-dihydroquinazolin-2-yl)thio)acetohydrazide]: the inhibition at 10 µM was 79.3%.

The series is the same for the next values; noted with them: mean ± SD of triplicate.
Regarding `NNC(=O)CSc1nc2ccc(Cl)cc2c(=O)n1Cc1ccccc1` [3f, 2-((3-Benzyl-6-chloro-4-oxo-3,4-dihydroquinazolin-2-yl)thio)acetohydrazide], the IC50 was found to be 651 ± 14 nM.

The target of another series is T3, HER2 (Homo sapiens, UniProt P04626).
T3 construct: purchased #40721
T3 sequence (P04626 23-1255): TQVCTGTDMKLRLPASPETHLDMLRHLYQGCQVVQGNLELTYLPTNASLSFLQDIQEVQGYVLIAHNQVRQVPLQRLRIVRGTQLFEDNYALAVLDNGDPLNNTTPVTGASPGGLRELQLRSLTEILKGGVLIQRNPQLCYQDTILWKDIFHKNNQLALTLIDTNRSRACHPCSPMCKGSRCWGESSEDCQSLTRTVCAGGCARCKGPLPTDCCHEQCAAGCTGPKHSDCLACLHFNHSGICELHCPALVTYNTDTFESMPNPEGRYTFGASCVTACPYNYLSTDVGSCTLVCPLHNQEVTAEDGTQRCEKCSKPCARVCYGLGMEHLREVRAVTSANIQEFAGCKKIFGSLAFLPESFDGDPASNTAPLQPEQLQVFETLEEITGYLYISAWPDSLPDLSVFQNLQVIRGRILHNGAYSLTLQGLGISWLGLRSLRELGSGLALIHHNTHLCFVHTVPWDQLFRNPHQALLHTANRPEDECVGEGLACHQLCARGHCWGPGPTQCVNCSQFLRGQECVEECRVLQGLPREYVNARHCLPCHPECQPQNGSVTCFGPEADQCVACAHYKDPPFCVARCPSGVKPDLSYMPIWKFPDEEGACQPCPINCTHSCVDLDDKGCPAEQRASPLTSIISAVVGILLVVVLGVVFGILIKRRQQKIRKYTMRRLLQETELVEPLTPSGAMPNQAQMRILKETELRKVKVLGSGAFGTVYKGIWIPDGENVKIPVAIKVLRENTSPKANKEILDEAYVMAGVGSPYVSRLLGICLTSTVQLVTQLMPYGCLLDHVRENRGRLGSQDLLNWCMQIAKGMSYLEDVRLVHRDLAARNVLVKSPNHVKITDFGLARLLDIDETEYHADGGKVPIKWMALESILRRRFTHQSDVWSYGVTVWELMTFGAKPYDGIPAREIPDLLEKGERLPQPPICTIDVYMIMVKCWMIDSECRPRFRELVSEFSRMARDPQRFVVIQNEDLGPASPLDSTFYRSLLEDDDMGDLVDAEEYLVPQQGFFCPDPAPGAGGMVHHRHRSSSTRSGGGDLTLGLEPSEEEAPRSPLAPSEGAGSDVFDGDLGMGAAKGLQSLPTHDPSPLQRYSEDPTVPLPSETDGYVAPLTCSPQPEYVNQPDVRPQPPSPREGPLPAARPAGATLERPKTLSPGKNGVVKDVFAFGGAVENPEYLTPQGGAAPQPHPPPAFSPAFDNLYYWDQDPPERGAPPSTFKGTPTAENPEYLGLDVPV
Kind of series: HER2 kinase assay kit, Kinase-Glo MAX luminescence. The class given is biochemical. The settings on record: 0.01 µM; one experimental data. As to the method:
as §2
Regarding `NNC(=O)CSc1nc2ccc(Cl)cc2c(=O)n1Cc1ccccc1` [3f, 2-((3-Benzyl-6-chloro-4-oxo-3,4-dihydroquinazolin-2-yl)thio)acetohydrazide], the inhibition at 0.01 µM is 17.3%.

Staying with this series, now noted: 0.1 µM; one experimental data.
For the compound `NNC(=O)CSc1nc2ccc(Cl)cc2c(=O)n1Cc1ccccc1` [3f, 2-((3-Benzyl-6-chloro-4-oxo-3,4-dihydroquinazolin-2-yl)thio)acetohydrazide], the inhibition at 0.1 µM was found to be 47.8%.

The series is the same for the next values; noted with them: 1 µM; one experimental data.
Turning to `NNC(=O)CSc1nc2ccc(Cl)cc2c(=O)n1Cc1ccccc1` [3f, 2-((3-Benzyl-6-chloro-4-oxo-3,4-dihydroquinazolin-2-yl)thio)acetohydrazide], the inhibition at 1 µM turned out to be 82.2%.

Staying with this series, now noted: 10 µM; one experimental data.
For `NNC(=O)CSc1nc2ccc(Cl)cc2c(=O)n1Cc1ccccc1` [3f, 2-((3-Benzyl-6-chloro-4-oxo-3,4-dihydroquinazolin-2-yl)thio)acetohydrazide], the inhibition at 10 µM was determined as 90.2%.

The same series, now with this note: mean ± SD of triplicate.
As to `NNC(=O)CSc1nc2ccc(Cl)cc2c(=O)n1Cc1ccccc1` [3f, 2-((3-Benzyl-6-chloro-4-oxo-3,4-dihydroquinazolin-2-yl)thio)acetohydrazide], the IC50 was found to be 132 ± 14 nM.

Another series has as its target T1, CDK2/CyclinA2. Nature of the series: CDK2 Assay Kit, Kinase-Glo MAX luminescence. The settings on record: 0.01 µM; one experimental data. In kind it is biochemical. How it is done:
The CDK2 Assay Kit is designed to measure CDK2/CyclinA2 activity for screening and profiling applications, using Kinase-Glo® MAX as a detection reagent. The CDK2 Assay Kit comes in a convenient 96-well format, with enough purified recombinant CDK2/CyclinA2 enzyme, CDK substrate peptide, ATP and kinase assay buffer for 100 enzyme reactions. […] […] The compounds were diluted in 10% DMSO and 5 μl of the dilution was added to a 50 μl reaction so that the final concentration of DMSO was 1% in all of the reactions. All of the enzymatic reactions were conducted at 30 °C for 40 min. The 50 μl reaction mixture contained 40 mM Tris, pH 7.4, 10 mM MgCl2, 0.1 mg/mL BSA, 1 mM DTT, 10 mM ATP, Kinase substrate and the enzyme (CDK2/CyclinA2). After the enzymatic reaction, 50 μl of Kinase-Glo® MAX Luminescence kinase assay solution was added to each reaction and the plates were incubated for 5 min at room temperature. Luminescence signal was measured using a Bio Tek Synergy 2 microplate reader.
Figure S1. Calculation of the IC20 Values of Protein Kinase Enzyme CDK2 for 2f
* All the kinase IC20 (µM) were calculated according to the above equations.
(1 picture or pasted object on this page, not shown here)
For `NNC(=O)CSc1nc2ccc(Cl)cc2c(=O)n1Cc1ccccc1` [3f, 2-((3-Benzyl-6-chloro-4-oxo-3,4-dihydroquinazolin-2-yl)thio)acetohydrazide], the inhibition at 0.01 µM is 2.23%.

Staying with this series, now noted: 0.1 µM; one experimental data.
With `NNC(=O)CSc1nc2ccc(Cl)cc2c(=O)n1Cc1ccccc1` [3f, 2-((3-Benzyl-6-chloro-4-oxo-3,4-dihydroquinazolin-2-yl)thio)acetohydrazide], the inhibition at 0.1 µM was determined as 34.7%.

Still in this series, the particulars now being: 1 µM; one experimental data.
For `NNC(=O)CSc1nc2ccc(Cl)cc2c(=O)n1Cc1ccccc1` [3f, 2-((3-Benzyl-6-chloro-4-oxo-3,4-dihydroquinazolin-2-yl)thio)acetohydrazide], the inhibition at 1 µM is 33.3%.

Still in this series, the particulars now being: 10 µM; one experimental data.
For `NNC(=O)CSc1nc2ccc(Cl)cc2c(=O)n1Cc1ccccc1` [3f, 2-((3-Benzyl-6-chloro-4-oxo-3,4-dihydroquinazolin-2-yl)thio)acetohydrazide], the inhibition at 10 µM was 81%.

Test system in another series: not given
Experiment: not given
Conditions: not given
Consider `NNC(=O)CSc1nc2ccc(Cl)cc2c(=O)n1Cc1ccccc1` [3f, 2-((3-Benzyl-6-chloro-4-oxo-3,4-dihydroquinazolin-2-yl)thio)acetohydrazide], for which the melting point fell in the range of 151 to 152 °C.

Another series concerns A2780 (human ovary adenocarcinoma) cells. Nature of the series: MTT cytotoxicity assay, A2780. In kind it is cell-based. The settings on record: Homo sapiens, A2780, mean ± SD of triplicate. As to the method:
as §1
Regarding `NNC(=O)CSc1nc2ccc(Cl)cc2c(=O)n1Cc1ccccc1` [3f, 2-((3-Benzyl-6-chloro-4-oxo-3,4-dihydroquinazolin-2-yl)thio)acetohydrazide], the IC50 was 1540 ± 600 nM.

The next series has as its target T4, EGFR (Homo sapiens, UniProt P00533).
T4 construct: purchased #40321
Kind of series: EGFR kinase assay kit, Kinase-Glo MAX luminescence. In kind it is biochemical. To be noted: 0.01 µM; one experimental data. How it is done: as §2
Regarding `NNC(=O)CSc1nc2ccc(Cl)cc2c(=O)n1Cc1ccccc1` [3f, 2-((3-Benzyl-6-chloro-4-oxo-3,4-dihydroquinazolin-2-yl)thio)acetohydrazide], the inhibition at 0.01 µM was determined as 3.31%.

The same series, now with this note: 0.1 µM; one experimental data.
Take `NNC(=O)CSc1nc2ccc(Cl)cc2c(=O)n1Cc1ccccc1` [3f, 2-((3-Benzyl-6-chloro-4-oxo-3,4-dihydroquinazolin-2-yl)thio)acetohydrazide]: the inhibition at 0.1 µM is 31.3%.

Still in this series, the particulars now being: 1 µM; one experimental data.
Turning to `NNC(=O)CSc1nc2ccc(Cl)cc2c(=O)n1Cc1ccccc1` [3f, 2-((3-Benzyl-6-chloro-4-oxo-3,4-dihydroquinazolin-2-yl)thio)acetohydrazide], the inhibition at 1 µM was determined as 31.4%.

Still in this series, the particulars now being: 10 µM; one experimental data.
Turning to `NNC(=O)CSc1nc2ccc(Cl)cc2c(=O)n1Cc1ccccc1` [3f, 2-((3-Benzyl-6-chloro-4-oxo-3,4-dihydroquinazolin-2-yl)thio)acetohydrazide], the inhibition at 10 µM came out at 84.8%.

The series is the same for the next values; noted with them: mean ± SD of triplicate.
On to `NNC(=O)CSc1nc2ccc(Cl)cc2c(=O)n1Cc1ccccc1` [3f, 2-((3-Benzyl-6-chloro-4-oxo-3,4-dihydroquinazolin-2-yl)thio)acetohydrazide], for which the IC50 was determined as 440 ± 15 nM.
